Literature values, collected in patent US20040071803A1, “Process for preparation of anti-diabetic compositions from banyan bark” (priority 2002, published 2004).

How the values were obtained:
[1] = tested on: alloxan induced diabetic rats; conditions: single dose of 250 mg/kg or long term 100 mg/Kg/day; mild but not severe diabetes (Cherian et. al. 1992)

Molecule	Antidiabetic effect in alloxan induced diabetic rats [1]	Effect on severely diabetic rabbits (alloxan diabetic rabbits; fasting blood glucose (FBG) of 250 mg/dl or above (Augusti 1975))	Hypoglycemic activity relative to tolbutamide (alloxan diabetic rabbits; normal and mildly diabetic rabbits (Augusti 1975))
CC1OC(Oc2cc3c(O)cc(O)cc3[o+]c2-c2ccc(O)cc2)C(O)C(O)C1O (stereo not drawn) [pelargonidin 3-0-α-rhamnoside]	antidiabetic effect	–	–
Leucocyanidin 3-0-β D-galactosyl cellobioside	antidiabetic effect	–	–
bengalinoside	–	did not have any effect	half as active as tolbutamide
